From US7563788B2, “Substituted Imidazo[1,2-a]pyridines as Antibacterial Agents” (Pfizer Inc., priority 2004, dated 2009) come the findings set out here.

Molecules are shown by their SMILES. ≈ marks a conversion by molar mass, not a printed value.

This test concerns Neisseria gonorrhoeae, GC525 (NG-2888). In words: In-vitro antibacterial activity, microbroth dilution MIC susceptibility testing. The conditions noted are these: gonococcal broth, 20-24 hours at 35° C., lowest concentration preventing visible growth. Type of test: cell-based. As to the method: The in-vitro antibacterial activity of selected compounds was determined against a stain of Neisseria gonorrhoeae, GC525 (NG-2888), which is described by Rouquette-Loughlin et al, in Journal of Bacteriology, February 2003, p. 1101-1106, at p. 1103. In general, minimum inhibitory concentration (MIC) susceptibility testing followed procedures recommended by the National Committee for Clinical Laboratory Standards (NCCLS^1-2) or followed the descriptions described below:
Neisseria gonorrhoeae strains were grown on Chocolate Agar II plates (BBL—Becton Dickinson Microbiology Systems, Cockeysville, Md.) and incubated at 35° C. in a humidified 5% CO2 incubator (Forma Scientific, Marietta Ohio). For microbroth dilution MIC testing, N. gonorrhoeae were tested in gonococcal broth (GCB):
Bacterial culture identifications were confirmed by standard microbiological methods.^4 N. gonorrhoeae strains were streaked onto appropriate agar plates for visualization of purity and expected colony morphology. Gram stains were also utilized.
Bacterial stock cultures are stored as frozen suspensions at −70° C. N. gonorrhoeae cultures are suspended in inactivated Horse Serum (Colorado Serum Company, Denver, Colo.) containing 7.5% glucose prior to snap freezing in a dry ice/ethanol bath.
Frozen stock cultures were used as the initial source of organisms for performing microbroth dilution MIC testing. Stock cultures were passed on their respective growth medium at least one growth cycle (18-24 hours) prior to their use. Bacterial culture suspensions were prepared directly from Chocolate Agar II plates into 10 mL cation-adjusted Mueller-Hinton Broth (CAMHB, BBL, # BB215069). Before use, cultures were adjusted to an optical density value of […] on a Perkin-Elmer Lambda EZ150 Spectrophotometer (Wellesley, Mass.) set at a wavelength of 600 nm. Random cultures were plated for validation of actual colony counts. The adjusted cultures were diluted 400-fold (0.25 mL inoculum+100 mL GCB) into gonococcal broth producing a starting inoculum of approximately 5×10^5 cfu/mL. These cultures were inoculated into test plates (100 uL/well) using a Biomek® FX workstation (Beckman Coulter Inc., Fullerton, Calif.). The inoculated plates were placed in stacks of no more than 4 and covered with an empty plate. Plates were incubated for 20-24 hours at 35° C. in a humidified CO2 incubator.
Drug stock solutions (2 mg/mL in DMSO) were prepared on the day of testing. Drugs were weight corrected for assay content where necessary.
Microbroth dilution stock plates were prepared in two dilution series, 64-0.06 ug drug/mL and 1-0.001 ug drug/mL. For the high concentration series, 200 uL of stock solution (2 mg/mL) was added to duplicate rows of a 96-well plate. This was used as the first well in the dilution series. Serial two-fold decremental dilutions were made using a BioMek FX robot (Beckman Coulter Inc., Fullerton, Calif.) with 10 of the remaining 11 wells, each of which contained 100 uL of the appropriate solvent/diluent. Row 12 contained solvent/diluent only and served as the control. For tube one of the low concentration series, 200 uL of a 31.25 ug/mL stock was added to duplicate rows of a 96-well plate. Serial two-fold dilutions were made as described above.
Daughter plates were spotted (3.2 uL/well) from the stock plates listed above using the BioMek FX robot and were inoculated with organism (100 uL/well) as described previously.
After incubation, the degree of growth in each well was read visually with the aid of a Test Reading Mirror (Dynatech Lab 220-16, Dynex Technologies, Chantilly, Va.). 96-well test plates are read in a darkened room with a single light shining from above. The MIC is the lowest concentration of drug that prevents macroscopically visible growth under the conditions of the test. Each drug dilution series was tested in duplicate; identical results are not always obtained. If MIC values in duplicate tests differ by 1 well (two-fold), the […] value is reported. […]
A general note: Dilution methods test growth across graded concentrations, often in twofold steps.

As usually defined, the MIC is the least concentration at which growth counts as inhibited. In turn, `CCNC(=O)Nc1cn2c(C(=O)NCC)cc(-c3cnc(N(C)C)nc3)cc2n1` [Example 50, 7-(2-Dimethylamino-pyrimidin-5-yl)-2-(3-ethyl-ureido)-imidazo[1,2-a]pyridine-5-carboxylic Acid Ethylamide] registered an MIC of 2 mg/L (≈ 5.04 µM). Under `CCNC(=O)Nc1cn2ccc(-c3ccnc(OC)c3)cc2n1` [Example 44, 1-Ethyl-3-[7-(2-methoxy-pyridin-4-yl)-imidazo[1,2-a]pyridin-2-yl]-urea] stands 16 mg/L (≈ 51.4 µM); under `COCCNC(=O)Nc1cn2ccc(-c3cncnc3)cc2n1` [Example 32, 1-(2-Methoxy-ethyl)-3-(7-pyrimidin-5-yl-imidazo[1,2-a]pyridin-2-yl)-urea], over 64 mg/L. Then `O=C(Nc1cn2ccc(-c3cncnc3)cc2n1)NC1CC1` [Example 27, 1-Cyclopropyl-3-(7-pyrimidin-5-yl-imidazo[1,2-a]pyridin-2-yl)-urea], with 64 mg/L (≈ 217 µM); and `CCNC(=O)Nc1cn2ccc(-c3ccnc(NC(=O)OC(C)(C)C)c3)cc2n1` [Example 37, {4-[2-(3-Ethyl-ureido)-imidazo[1,2-a]pyridin-7-yl]-pyridin-2-yl}-carbamic Acid Tert-Butyl Ester], with 64 mg/L (≈ 161 µM); and `CCNC(=O)Nc1cn2c(CO)cc(-c3cccnc3)cc2n1` [Example 7A, 1-Ethyl-3-(5-hydroxymethyl-7-pyridin-3-yl-imidazo[1,2-a]pyridin-2-yl)-urea], with 5.66 mg/L (≈ 18.2 µM). Then `CCNC(=O)Nc1cn2ccc(C(=O)OC)cc2n1` [Example 18, 2-(3-Ethyl-ureido)-imidazo[1,2-a]pyridine-7-carboxylic Acid Methyl Ester], with over 64 mg/L; and `CCNC(=O)Nc1cn2ccc(-c3nnc(C)o3)cc2n1` [Example 36, 1-Ethyl-3-[7-(5-methyl-[1,3,4]oxadiazol-2-yl)-imidazo[1,2-a]pyridin-2-yl]-urea], with 64 mg/L (≈ 224 µM). Regarding `CCNC(=O)Nc1cn2ccc(-c3c(C)nn(C(=O)OC(C)(C)C)c3C)cc2n1` [Example 14, 4-[2-(3-Ethyl-ureido)-imidazo[1,2-a]pyridin-7-yl]-3,5-dimethyl-pyrazole-1-carboxylic Acid Tert-Butyl Ester], the MIC is 64 mg/L (≈ 161 µM). Then `CCNC(=O)Nc1cn2c(-c3ncccn3)cc(-c3cnc(N(C)C)nc3)cc2n1` [Example 51, 1-[7-(2-Dimethylamino-pyrimidin-5-yl)-5-pyrimidin-2-yl-imidazo[1,2-a]pyridin-2-yl]-3-ethyl-urea], with 0.13 mg/L (≈ 0.322 µM); and `CCNC(=O)Nc1cn2ccc(-c3noc(=O)[nH]3)cc2n1` [Example 41, 1-Ethyl-3-[7-(5-oxo-4,5-dihydro-[1,2,4]oxadiazol-3-yl)-imidazo[1,2-a]pyridin-2-yl]-urea], with over 64 mg/L; and `CCCNC(=O)Nc1cn2ccc(-c3cncnc3)cc2n1` [Example 29, 1-Propyl-3-(7-pyrimidin-5-yl-imidazo[1,2-a]pyridin-2-yl)-urea], with 16 mg/L (≈ 54 µM). Then `CCNC(=O)Nc1cn2ccc(C(=O)N3CCOCC3)cc2n1` [Example 43, 1-Ethyl-3-[7-(morpholine-4-carbonyl)-imidazo[1,2-a]pyridin-2-yl]-urea], with over 64 mg/L; and `CCNC(=O)Nc1cn2ccc(-c3c(C)n[nH]c3C)cc2n1` [Example 25, 1-[7-(3,5-Dimethyl-1H-pyrazol-4-yl)-imidazo[1,2-a]pyridin-2-yl]-3-ethyl-urea], with 64 mg/L (≈ 215 µM); and `CCNC(=O)Nc1cn2ccc(-c3nc(C)n[nH]3)cc2n1` [Example 20, 1-Ethyl-3-[7-(5-methyl-2H-[1,2,4]triazol-3-yl)-imidazo[1,2-a]pyridin-2-yl]-urea], with over 64 mg/L.

Compound `CCNC(=O)Nc1cn2ccc(-c3ccc(N4CCN(C)CC4)nc3)cc2n1` [Example 11, 1-Ethyl-3-{7-[6-(4-methyl-piperazin-1-yl)-pyridin-3-yl]-imidazo[1,2-a]pyridin-2-yl}-urea] returned an MIC of 64 mg/L (≈ 169 µM). `O=C(Nc1cn2ccc(-c3cncnc3)cc2n1)NC1CCC1` [Example 33, 1-Cyclobutyl-3-(7-pyrimidin-5-yl-imidazo[1,2-a]pyridin-2-yl)-urea] had an MIC of 16 mg/L (≈ 51.9 µM).
